According to US20210002232A1, “HETEROCYCLIC COMPOUNDS AS FUNGICIDES” (PI INDUSTRIES LTD., priority 2018, published 2021):

How the values were obtained:
Pyricularia oryzae = assay: microbe, parasite or virus in culture; type: cell-based; conditions: 168 h, read-out: control
Alternaria solani = Alternaria solani (early blight of tomato/potato) mycelial radial growth on Potato Dextrose Agar; conditions: 168 h, read-out: control
Experimental: Compounds were dissolved in 0.3% DMSO & then added to Potato Dextrose Agar medium just prior to dispensing it into Petri dishes. 5 ml medium with compound in the desired concentration was dispensed into 60 mm sterile petri-plates. After solidification each plate was seeded with 5 mm size mycelial disc taken form periphery of actively growing virulent culture plate. Plates were incubated in growth chambers at 25° C. temperature and 60% relative humidity for seven days and radial growth was measured.

Phakopsora pachyrhizi = Phakopsora pachyrhizi test in soybean, preventive spray in greenhouse; type: in vivo; conditions: preventive spray on soybean plants, inoculated one day after treatment, compared to the untreated check, read-out: control (efficacy from disease severity rating)
Corynespora cassiicola = Corynespora cassiicola (leaf spot of tomato) mycelial radial growth on Potato Dextrose Agar; type: cell-based; conditions: 300 ppm; radial growth after seven days, 25° C., 70% relative humidity; compared to the untreated check

SMILES	inhibition of growth at 300 ppm (Pyricularia oryzae) [%]	inhibition of growth at 300 ppm (Alternaria solani) [%]	pest or weed control at 500 ppm (Phakopsora pachyrhizi) [%]	control (Corynespora cassiicola)
CN(CCOc1ccccc1)C(=O)c1ccc(-c2coc(C(F)(F)F)n2)cc1 [Compound 67, N-methyl-N-(2-phenoxyethyl)-4-(2-(trifluoromethyl)oxazol-4-yl)benzamide]	> 70	> 70	> 90	
CS(=O)(=Nc1ccc(C2=NOC(C(F)(F)F)N2)cc1)c1ccccn1 (stereo not drawn) [Compound 24, Methyl(pyridin-2-yl)((4-(5-(trifluoromethyl)-4,5-dihydro-1,2,4-oxadiazol-3-yl)phenyl)imino)-λ^6-sulfanone]	> 70	> 70	> 90	
COc1ccc(S(C)(=O)=Nc2ccc(C3=NOC(C(F)(F)F)N3)cc2)cc1 (stereo not drawn) [Compound 16, (4-methoxyphenyl)(methyl)((4-(5-(trifluoromethyl)-4,5-dihydro-1,2,4-oxadiazol-3-yl)phenyl)imino)-λ^6-sulfanone]	> 70	> 70		
CS(=O)(=NC(=O)c1ccc(-c2cc(C(F)(F)F)on2)cc1)c1ccc(C(F)(F)F)cc1 (stereo not drawn) [Compound 59, N-(methyl(oxo)(4-(trifluoromethyl)phenyl)-λ^6-sulfaneylidene)-4-(5-(trifluoromethyl)isoxazol-3-yl)benzamide]				more than 70%
CN(C(=O)c1ccc(-c2coc(C(F)(F)F)n2)cc1)c1ccccc1 [Compound 82, N-methyl-N-phenyl-4-(2-(trifluoromethyl)oxazol-4-yl)benzamide]	> 70	> 70	> 90	
Cc1ccc(S(C)(=O)=NCc2ccc(C3=NOC(C(F)(F)F)N3)cc2)cc1 (stereo not drawn) [Compound 30, methyl(p-tolyl)((4-(5-(trifluoromethyl)-4,5-dihydro-1,2,4-oxadiazol-3-yl)benzyl)imino)-λ^6-sulfanone]	> 70	> 70	> 90	
